Experimental data reported in patent publication US20240115654A1, “INTRAVENOUS ADMINISTRATION OF ENGINEERED ANTIMICROBIAL AMPHIPHILIC PEPTIDES” (priority 2021, published 2024).
Peptide text beside a SMILES is read from it.

Details: 0.05 mg/kg IV 1 hr infusion (N = 6)
Source text: All subjects who met eligibility criteria were confined to the clinical research unit from […] through Day 3. At admission, physical examination, vital signs, 12 lead ECG and weight were obtained, medical and medication history were updated if necessary, safety blood tests (hematology and chemistry), urinalysis, urine drug screen and an alcohol breath test were repeated and a urine pregnancy test was done for women of childbearing potential.
At each dose level, there were 2 sentinel subjects, (1 active, 1 placebo), who were dosed at least 48 hours in advance of the other subjects in their respective group. Following review of safety data, including physical examination, vital signs, and review of adverse events from the first 2 subjects, enrolment in the cohort continued.
A 12-lead ECG was performed on Day 1, within 60 minutes of infusion start (in triplicate), mid-way through the infusion, at the completion of the infusion, 30 minutes after completion of the infusion and at various timepoints following the end of the infusion.
Vital signs were recorded within 60 minutes pre-dose, at the mid-point of the infusion and post dose vitals were assessed at completion of the infusion, 0.5, 1, 2, 3, 4, 6, 9, 12, 24 and 48 hours post dose, after at least 3 minutes of rest in supine position.
Subjects returned to the study center 7 days after dosing, for the termination visit. A full physical examination, vital signs and weight were obtained, concomitant medications were updated if necessary, safety blood specimens (haematology and chemistry, PT and aPTT) and urine were collected for urinalysis and urine drug screening. A serum pregnancy test was done for women of childbearing potential and a 12-lead ECG was performed.
In this study dose limiting toxicity (DLT) was defined as any drug related ≥Grade 3 AEs occurring despite optimal therapeutic interventions (which included but were not limited to allergic/hypersensitivity reactions, dermatological reactions/infusion site reactions, haematological toxicities such as neutropenia, thrombocytopenia and anaemia and clinical chemistry abnormalities) experienced up to Day 7 (Termination Visit).
(§1) All subjects who received any amount of study drug were included in the safety analysis (Safety population).
The study was a double blinded, randomized, placebo-controlled study. The placebo administered was 0.9% sodium chloride.
On Day 1 (day of dosing), subjects were randomly assigned either peptide IV or Placebo IV. At each dose level, there were 2 sentinel subjects, (1 active, 1 placebo), who were dosed at least 48 hours in advance of the other subjects in their respective group. Following review of safety data, including physical examination, vital signs, and review of adverse events from the first 2 subjects, enrolment in the cohort continued. All subjects who met eligibility criteria were confined to the clinical research unit from Day −2 through Day 3. At admission, physical examination, vital signs, 12 lead ECG and weight were obtained, medical and medication history were updated if necessary, safety blood tests (hematology and chemistry), urinalysis, urine drug screen and an alcohol breath test were repeated and a urine pregnancy test was done for women of childbearing potential.
as §1

In the case of `CC(C)[C@H](NC(=O)[C@H](Cc1c[nH]c2ccccc12)NC(=O)[C@H](CCCNC(=N)N)NC(=O)[C@H](CCCNC(=N)N)NC(=O)[C@@H](NC(=O)[C@@H](NC(=O)[C@H](CCCNC(=N)N)NC(=O)[C@@H](NC(=O)[C@@H](NC(=O)[C@H](CCCNC(=N)N)NC(=O)[C@H](CCCNC(=N)N)NC(=O)[C@H](Cc1c[nH]c2ccccc12)NC(=O)[C@@H](NC(=O)[C@H](CCCNC(=N)N)NC(=O)[C@H](CCCNC(=N)N)NC(=O)[C@@H](NC(=O)[C@H](CCCNC(=N)N)NC(=O)[C@H](CCCNC(=N)N)NC(=O)[C@@H](NC(=O)[C@H](Cc1c[nH]c2ccccc12)NC(=O)[C@H](CCCNC(=N)N)NC(=O)[C@@H](N)CCCNC(=N)N)C(C)C)C(C)C)C(C)C)C(C)C)C(C)C)C(C)C)C(C)C)C(=O)N[C@@H](CCCNC(=N)N)C(=O)N[C@@H](CCCNC(=N)N)C(N)=O` [SEQ ID NO: 1] (H-RRWVRRVRRVWRRVVRVVRRWVRR-NH2), the “Related TEAE Abdominal [?], n participants” value is reported as 0, the “Related TEAE Blood and lymphatic system disorders, n participants” value is reported as 0 and the “Related TEAE Co[?], n participants” value is reported as 0. The “Related TEAE D[?] (r32, GI SOC), n participants” value was 0, the “Related TEAE F[?], n participants” value was 0 and the “Related TEAE Gastrointestinal disorders, n participants” value was 0. The “Related TEAE In[?] related reaction, n participants” value was 0, the “Related TEAE Infusion [?] reaction, n participants” value was 0 and the “Related TEAE Injury, poi[?] procedural complications, n participants” value was 0. For the same compound, the “Related TEAE M[?] and connective tissure disorders, n participants” value was 0, the “Related TEAE Myalgia, n participants” value was 0 and the “Related TEAE Nervous system disorders, n participants” value was 0. The “Related TEAE O[?] (r25, vascular SOC), n participants” value was 0, the “Related TEAE O[?] (r38, respiratory SOC), n participants” value was 0 and the “Related TEAE P[?] (r26, vascular SOC), n participants” value was 0. For the same compound, the “Related TEAE Pain in extremity, n participants” value was 0, the “Related TEAE Respiratory, thoracic and m[?] disorders, n participants” value was 0 and the “Related TEAE T[?], n participants” value was 0. The “Related TEAE Vascular disorders, n participants” value was 0, the “Related TEAE Ve[?], n participants” value was 0 and the “Related TEAE [?] headache, n participants” value was 0. For the same compound, the “TEAE A[?] (r19, skin SOC), n participants” value was 0, the “TEAE A[?] (r46, GI SOC), n participants” value was 0 and the “TEAE Back pain, n participants” value was 0. For the same compound, the “TEAE Blood and lymphatic system disorders, n participants” value was 0, the “TEAE Constipation, n participants” value was 0 and the “TEAE D[?] (r54), n participants” value was 0. The “TEAE D[?] contact, n participants” value was 0, the “TEAE Dia[?], n participants” value was 0 and the “TEAE Headache, n participants” value was 0. The “TEAE In[?] (r53), n participants” value was 0, the “TEAE Injury, [?] and procedural complications, % participants” value was 50.0% and the “TEAE Injury, [?] and procedural complications, M occurrences” value was 3. For the same compound, the “TEAE Injury, [?] and procedural complications, n participants” value was 3, the “TEAE Mu[?], n participants” value was 0 and the “TEAE Musculoskeletal and connective tissue disorders, n participants” value was 0. The “TEAE My[?], n participants” value was 0, the “TEAE O[?] (r37, vascular SOC), n participants” value was 0 and the “TEAE O[?] pain, n participants” value was 0. For the same compound, the “TEAE Pain [?], n participants” value was 0, the “TEAE Participants with at least one [?], M occurrences” value was 7 and the “TEAE Participants with at least one [?], n participants” value was 5. For the same compound, the “TEAE R[?] (r20, skin SOC), n participants” value was 0, the “TEAE Respiratory, thoracic and [?] disorders, n participants” value was 0 and the “TEAE Severity Grade 1, occurrences (M)” value was 7. For the same compound, the “TEAE Severity Grade 1, participants %” value was 83.3%, the “TEAE Severity Grade 1, participants n” value was 5 and the “TEAE Severity Grade 2, participants n” value was 0. For the same compound, the “TEAE Skin and [?] tissue [?], n participants” value was 0, the “TEAE Skin reaction, n participants” value was 0 and the “TEAE Thermal [?], n participants” value was 0. For the same compound, the “TEAE V[?] (r24, general SOC), n participants” value was 0, the “TEAE V[?] access [?] (r10), % participants” value was 50.0% and the “TEAE V[?] access [?] (r10), M occurrences” value was 3. The “TEAE V[?] access [?] (r10), n participants” value was 3, the “TEAE V[?] puncture site [?] (r28), n participants” value was 0 and the “TEAE Vascular access site [?] (r11), n participants” value was 0. The “TEAE Vascular access site [?] (r12), n participants” value was 0, the “TEAE Vascular access site [?] (r15), n participants” value was 0 and the “TEAE Vascular disorders, n participants” value was 0. The “TEAE [?] (r13, under Injury SOC), n participants” value was 0, the “TEAE [?] (r25, general SOC), n participants” value was 0 and the “TEAE [?] (r26, general SOC), n participants” value was 0. For the same compound, the “TEAE [?] (r38, vascular SOC), n participants” value was 0, the “TEAE [?] (r39, vascular SOC), n participants” value was 0 and the “TEAE [?] (r44, nervous SOC), n participants” value was 0. For the same compound, the “TEAE [?] (r52, blood SOC), n participants” value was 0.
